Results published in ChEMBL document CHEMBL3351435, “New pyrrole derivatives with potent tubulin polymerization inhibiting activity as anticancer agents including hedgehog-dependent cancer” (J Med Chem, 2014).
The source made the active and inactive calls. No cut-off for these calls is given here.

Columns and labels:
Tubulin = experiment: Inhibition of tubulin (unknown origin) polymerization incubated 15 mins prior to GTP addition by spectrophotometry; format: protein-complex assay, Homo sapiens
MCF7 = experiment: Cytotoxicity against human MCF7 cells after 96 hrs by Giemsa staining-based light microscopy; format: functional, cell-based; conditions: MCF7, 96 h
Tubulin (Homo sapiens) [1] = target: T1, Tubulin (Homo sapiens) (UniProt P68371+Q9H4B7+P0DPH7+P68366+Q13509+Q71U36+P04350+Q3ZCM7+P07437+P68363+Q9BQE3+Q6PEY2+Q13885+Q9BVA1+Q9BUF5); experiment: Displacement of [3H]colchicine from tubulin (unknown origin) at 5 uM after 10 mins; format: protein-complex assay
[2] = Cell cycle arrest in human PC3 cells assessed as accumulation at G2/M phase at 500 nM after 24 hrs by propidium iodide staining-based flow cytometry; format: functional; conditions: PC-3
RD [3] = experiment: Cell cycle arrest in human RD cells assessed as accumulation at G2/M phase at 500 nM after 24 hrs by propidium iodide staining-based flow cytometry; format: functional
[4] = Cell cycle arrest in human PC3 cells assessed as rounded cells at 500 nM after 24 hrs by propidium iodide staining-based flow cytometry; format: functional; conditions: PC-3
RD [5] = experiment: Cell cycle arrest in human RD cells assessed as rounded cells at 500 nM after 24 hrs by propidium iodide staining-based flow cytometry; format: functional
[6] = Cell cycle arrest in human PC3 cells at 500 to 2000 nM incubated for 24 hrs followed by compound washout measured after 24 hrs; format: functional, cell-based; conditions: PC-3
RD [7] = experiment: Cell cycle arrest in human RD cells at 1000 to 2000 nM incubated for 24 hrs followed by compound washout measured after 24 hrs; format: functional, cell-based
RD [8] = experiment: Cell cycle arrest in human RD cells at 500 nM incubated for 24 hrs followed by compound washout measured after 24 hrs; format: functional, cell-based
HepG2 [9] = experiment: Cell cycle arrest in human HepG2 cells at 500 to 2000 nM incubated for 24 hrs followed by compound washout measured after 24 hrs; format: functional, cell-based
Tubulin (Homo sapiens) [10] = target: T1, Tubulin (Homo sapiens); experiment: Inhibition of tubulin (unknown origin) polymerization at 20 uM incubated 15 mins prior to GTP addition by spectrophotometry; format: protein-complex assay
K562 [11] = experiment: Cytotoxicity against human K562 cells assessed as growth inhibition after 96 hrs by Giemsa staining-based light microscopy; format: functional, cell-based; conditions: K562, 96 h
K562 [12] = experiment: Cell cycle arrest in human K562 cells assessed as mitotic index at 4 uM (reference value: 3 +/- 1%)
K562 [13] = experiment: Cell cycle arrest in human K562 cells assessed as mitotic index at 10 times IC50 (reference value: […] +/- […]%); format: functional
[14] = Cytotoxicity against human MESSA cells assessed as growth inhibition after 72 hrs by CellTitre-Glo assay; format: functional, cell-based; conditions: MES-SA
[15] = Cytotoxicity against human MESSA/DX5 cells assessed as growth inhibition after 72 hrs by CellTitre-Glo assay; format: functional, cell-based; conditions: MES-SA/Dx5, 72 h
HeLa [16] = experiment: Cell cycle arrest in human HeLa cells assessed as accumulation at G2/M phase at 20 nM by propidium iodide staining-based flow cytometry; format: functional
HeLa [17] = experiment: Cell cycle arrest in human HeLa cells assessed as mitotic rounded-up phenotype at 20 nM by light microscopy; format: functional, cell-based
RD [18] = experiment: Cytotoxicity against human RD cells assessed as growth inhibition after 48 hrs by MTT method; format: functional, cell-based
HepG2 [19] = experiment: Cytotoxicity against human HepG2 cells assessed as growth inhibition after 48 hrs by MTT method; format: functional, cell-based; conditions: HepG2, 48 h
cells = conditions: Homo sapiens, OVCAR-8, 96 h
Description: Cytotoxicity against human OVCAR8 cells assessed as growth inhibition after 96 hrs by Giemsa staining-based light microscopy

HeLa [20] = experiment: Cytotoxicity against human HeLa cells assessed as growth inhibition after 48 hrs by MTT method; format: functional, cell-based
HT-29 = experiment: Cytotoxicity against human HT-29 cells assessed as growth inhibition after 48 hrs by MTT method; format: functional, cell-based; conditions: HT-29, 48 h
A549 = experiment: Cytotoxicity against human A549 cells assessed as growth inhibition after 48 hrs by MTT method; format: functional, cell-based; conditions: A549, 48 h
NCI/ADR-RES = experiment: Cytotoxicity against human NCI/ADR-RES cells assessed as growth inhibition after 96 hrs by Giemsa staining-based light microscopy; format: functional, cell-based

Compound	IC50 (Tubulin)	IC50 (MCF7)	inhibition (Tubulin (Homo sapiens) [1])	further results
COc1cc(C(=O)c2ccn(-c3ccccc3Cl)c2)cc(OC)c1OC	8800 nM	4500 nM	–	–
COc1ccc(-n2ccc(C(=O)c3cc(OC)c(OC)c(OC)c3)c2)cc1N	1300 nM	470 nM	89%	–
CC[C@]1(O)C[C@H]2CN(CCc3c([nH]c4ccccc34)[C@@](C(=O)OC)(c3cc4c(cc3OC)N(C=O)[C@H]3[C@@](O)(C(=O)OC)[C@H](OC(C)=O)[C@]5(CC)C=CCN6CC[C@]43[C@@H]65)C2)C1	–	–	–	Activity [2]: Active; Activity (RD [3]): Active; Activity [4]: Active; Activity (RD [5]): Active; Activity [6]: inactive; Activity (RD [7]): inactive; Activity (RD [8]): Active; Activity (HepG2 [9]): inactive
COc1cc(C(=O)c2ccn(-c3ccccc3N)c2)cc(OC)c1OC	6800 nM	–	–	–
COc1cc(C(=O)c2ccn(Cc3ccccc3)c2)cc(OC)c1OC	> 40000 nM	–	–	–
COc1cc(C(=O)c2ccn(-c3cccc(O)c3)c2)cc(OC)c1OC	1200 nM	400 nM	86%	–
COc1cc(C(=O)c2ccn(-c3ccccc3F)c2)cc(OC)c1OC	1000 nM	1000 nM	77%	–
COc1cc(C(=O)c2ccn(-c3cccc(F)c3)c2)cc(OC)c1OC	2100 nM	1300 nM	55%	–
COc1cc(C(=O)c2ccn(-c3cccc(N4CCCCC4)c3)c2)cc(OC)c1OC	–	–	–	inhibition (Tubulin (Homo sapiens) [10]): inactive
COc1cc(C(=O)c2ccn(-c3cccc(NC(C)C)c3)c2)cc(OC)c1OC	2500 nM	20 nM	53%	IC50 (K562 [11]): 500 nM; Activity (K562 [12]): 69%
COc1cc(C(=O)c2ccn(-c3cccc(NS(C)(=O)=O)c3)c2)cc(OC)c1OC	860 nM	60 nM	84%	Activity (K562 [13]): 61%
COc1cc(C(=O)c2ccn(-c3cc(OC)c(OC)c(OC)c3)c2)cc(OC)c1OC	> 40000 nM	–	–	–
CC[C@]1(O)C[C@@H]2CN(CCc3c([nH]c4ccccc34)[C@@](C(=O)OC)(c3cc4c(cc3OC)N(C)[C@H]3[C@@](O)(C(=O)OC)[C@H](OC(C)=O)[C@]5(CC)C=CCN6CC[C@]43[C@@H]65)C2)C1 [VINBLASTINE]	–	–	–	IC50 [14]: 3 nM; IC50 [15]: 144 nM; Activity (HeLa [16]): Active; Activity (HeLa [17]): Active; IC50 (RD [18]): 52.5 nM; IC50 (HepG2 [19]): 80.7 nM; Activity [2]: Active; Activity (RD [3]): Active; Activity [4]: Active; Activity (RD [5]): Active; Activity [6]: inactive; Activity (RD [7]): inactive; Activity (RD [8]): Active; Activity (HepG2 [9]): inactive; IC50 (cells): 15 nM
CNc1cccc(-n2ccc(C(=O)c3cc(OC)c(OC)c(OC)c3)c2)c1	1000 nM	–	92%	IC50 (K562 [11]): 30 nM; Activity (K562 [13]): 61%
COc1cc(C(=O)c2ccn(-c3ccccc3[N+](=O)[O-])c2)cc(OC)c1OC	–	–	–	inhibition (Tubulin (Homo sapiens) [10]): inactive
COc1cc(C(=O)c2ccn(-c3cccc(C)c3)c2)cc(OC)c1OC	950 nM	50 nM	79%	–
COc1ccc(-n2ccc(C(=O)c3cc(OC)c(OC)c(OC)c3)c2)cc1O	1300 nM	4500 nM	79%	IC50 (HeLa [20]): 200 nM; IC50 (HT-29): > 10000 nM; IC50 (A549): > 10000 nM
COc1cc(C(=O)c2ccn(-c3cccc(-n4cccc4)c3)c2)cc(OC)c1OC	2500 nM	43 nM	27%	IC50 (K562 [11]): 90 nM; Activity (K562 [13]): 47%
COc1cc(C(=O)c2ccn(-c3ccc(O)cc3)c2)cc(OC)c1OC	–	450 nM	59%	–
COc1cc(-n2ccc(C(=O)c3ccccc3)c2)cc(OC)c1OC	–	–	–	inhibition (Tubulin (Homo sapiens) [10]): inactive
COc1cc(C(=O)c2ccn(-c3ccccc3OC(C)C)c2)cc(OC)c1OC	6100 nM	–	–	–
COc1cc(C(=O)c2ccn(-c3cccc(N(C)C)c3)c2)cc(OC)c1OC	1500 nM	1000 nM	60%	–
COc1cc(C(=O)c2ccn(-c3ccc(C)cc3)c2)cc(OC)c1OC	900 nM	–	95%	IC50 (K562 [11]): 30 nM; Activity (K562 [13]): 61%
COc1ccc(-n2ccc(C(=O)c3cc(OC)c(OC)c(OC)c3)c2)cc1OC	2100 nM	100 nM	56%	–

Compound	IC50 (Tubulin)	IC50 (MCF7)	inhibition (Tubulin (Homo sapiens) [1])	further results
COc1cc(C(=O)c2ccn(-c3ccc(F)cc3)c2)cc(OC)c1OC	1400 nM	190 nM	78%	–
COc1cc(C(=O)c2ccn(-c3cccc(OCc4ccccc4)c3)c2)cc(OC)c1OC	–	–	–	inhibition (Tubulin (Homo sapiens) [10]): inactive
COc1cc(C(=O)c2ccn(-c3cccc(Cl)c3)c2)cc(OC)c1OC	2200 nM	600 nM	58%	–
COc1cc(C(=O)c2ccn(S(=O)(=O)c3ccccc3)c2)cc(OC)c1OC	16000 nM	–	–	–
COc1cc(C(=O)c2ccn(-c3cccc(OC(C)C)c3)c2)cc(OC)c1OC	2500 nM	250 nM	17%	–
COc1cc(C(=O)c2ccn(-c3ccc(Cl)cc3)c2)cc(OC)c1OC	2300 nM	200 nM	73%	–
COc1cc(C(=O)c2ccn(-c3ccc(N)cc3)c2)cc(OC)c1OC	1300 nM	15 nM	81%	–
COc1cc(C(=O)c2ccn(C)c2)cc(OC)c1OC	> 40000 nM	–	–	–
COc1cc(C(=O)c2ccn(-c3ccc([N+](=O)[O-])cc3)c2)cc(OC)c1OC	–	–	–	inhibition (Tubulin (Homo sapiens) [10]): inactive
COc1cc(C(=O)c2ccn(-c3ccccc3O)c2)cc(OC)c1OC	1700 nM	530 nM	67%	–
O=C(c1ccccc1)c1ccn(-c2ccccc2)c1	–	–	–	inhibition (Tubulin (Homo sapiens) [10]): inactive
COc1ccc(-n2ccc(C(=O)c3cc(OC)c(OC)c(OC)c3)c2)cc1[N+](=O)[O-]	–	830 nM	–	–
COc1ccc(C(=O)c2ccn(-c3cc(OC)c(OC)c(OC)c3)c2)cc1OC(C)C	–	–	–	inhibition (Tubulin (Homo sapiens) [10]): inactive
COc1cc(C(=O)c2ccn(-c3cccc(N4CCCC4)c3)c2)cc(OC)c1OC	2500 nM	16 nM	23%	IC50 (K562 [11]): 950 nM; Activity (K562 [12]): 39%
COc1ccc(-n2ccc(C(=O)c3cc(OC)c(OC)c(OC)c3)c2)cc1	1200 nM	250 nM	76%	IC50 (HeLa [20]): 150 nM; IC50 (HT-29): 200 nM; IC50 (A549): 80 nM; IC50 (NCI/ADR-RES): 17 nM; IC50 [14]: 63 nM; IC50 [15]: 87 nM; IC50 (cells): 60 nM
COc1ccccc1-n1ccc(C(=O)c2cc(OC)c(OC)c(OC)c2)c1	2700 nM	3500 nM	50%	IC50 (HeLa [20]): 900 nM; IC50 (HT-29): 1000 nM; IC50 (A549): 1000 nM; IC50 (NCI/ADR-RES): 200 nM; IC50 [14]: 515 nM; IC50 [15]: 653 nM; IC50 (cells): 450 nM
COc1cc(C(=O)c2ccn(-c3ccc(OC(C)C)cc3)c2)cc(OC)c1OC	–	–	–	inhibition (Tubulin (Homo sapiens) [10]): inactive
COc1cc(C(=O)c2ccn(-c3cccc([N+](=O)[O-])c3)c2)cc(OC)c1OC	8900 nM	–	–	–
COc1ccc(-n2ccc(C(=O)c3cc(OC)c(OC)c(OC)c3)c2)cc1OC(C)C	1700 nM	–	48%	IC50 (HeLa [20]): 800 nM; IC50 (HT-29): 800 nM; IC50 (A549): 1000 nM
COc1cc(C(=O)c2cc[nH]c2)cc(OC)c1OC	> 40000 nM	–	–	–
COc1cc(C(=O)c2ccn(-c3ccccc3C)c2)cc(OC)c1OC	13000 nM	–	–	–
COc1ccc(C(=O)c2ccn(-c3cc(OC)c(OC)c(OC)c3)c2)cc1O	–	–	–	inhibition (Tubulin (Homo sapiens) [10]): inactive
COc1cccc(-n2ccc(C(=O)c3cc(OC)c(OC)c(OC)c3)c2)c1	1800 nM	600 nM	66%	IC50 (HeLa [20]): 1000 nM; IC50 (HT-29): 800 nM; IC50 (A549): 3000 nM; IC50 (NCI/ADR-RES): 90 nM; IC50 [14]: 262 nM; IC50 [15]: 471 nM; IC50 (cells): 250 nM
